Results as given in PubChem BioAssay AID196 (DTP/NCI, 2004).
“And” between values parts separate entries of the source, which are not always exact repeats. Equal entries are not always repeated. Inconclusive results and toxic doses are left out.

System: BDF1 mice, intracerebral B16 melanoma, median survival T/C
Experiment: NCI In Vivo Anticancer Drug Screen. Data for tumor model B16 Melanoma (intracerebral) in B6D2F1 (BDF1) mice
Conditions: endpoint: median survival time, higher = longer survival
Protocol: The antitumor activity of compounds was measured in mice bearing transplantable tumors. Survival or tumor size were measured and the results are expressed as the measurement made in the treated group (T) divided by the measurement made in the vehicle treated control group (C). The tumor model used in this assay is B16 Melanoma (intracerebral) in B6D2F1 (BDF1) mice

[1] = dose: 0.5 mg/kg/injection, schedule: Q01DX009 (ip), vehicle: Klucel (hydroxypropylcellulose) (HPC)
[2] = dose: 0.5 mg/kg/injection, schedule: Q01DX009 (ip), vehicle: saline
[3] = dose: 1.0 mg/kg/injection, schedule: Q01DX009 (ip), vehicle: Klucel (hydroxypropylcellulose) (HPC)
[4] = dose: 1.0 mg/kg/injection, schedule: Q01DX009 (ip), vehicle: saline
[5] = dose: 2.0 mg/kg/injection, schedule: Q01DX009 (ip), vehicle: saline
[6] = dose: 12.5 mg/kg/injection, schedule: Q01DX009 (ip), vehicle: saline
[7] = dose: 25.0 mg/kg/injection, schedule: Q01DX009 (ip), vehicle: saline
[8] = dose: 50.0 mg/kg/injection, schedule: Q01DX009 (ip), vehicle: saline
[9] = dose: 100.0 mg/kg/injection, schedule: Q01DX009 (ip), vehicle: saline
[10] = dose: 200.0 mg/kg/injection, schedule: Q01DX009 (ip), vehicle: saline
[11] = dose: 400.0 mg/kg/injection, schedule: Q01DX009 (ip), vehicle: saline
[12] = dose: 25.0 mg/kg/injection, schedule: Q01DX009 (ip), vehicle: saline with Tween-80
[13] = dose: 26.7 mg/kg/injection, schedule: Q01DX001 (ip), vehicle: Klucel (hydroxypropylcellulose) (HPC)
[14] = dose: 40.0 mg/kg/injection, schedule: Q01DX001 (ip), vehicle: Klucel (hydroxypropylcellulose) (HPC)
[15] = dose: 60.0 mg/kg/injection, schedule: Q01DX001 (ip), vehicle: Klucel (hydroxypropylcellulose) (HPC)

COc1ccc(CC2C(=O)NC(C)C(=O)N(C)C3C(=O)N(C)C(Cc4ccc(O)c(c4)Oc4ccc(cc4)C3O)C(=O)NC(C)C(=O)NC(C)C(=O)N2C)cc1 (stereo not given)
T/C (dose: 0.12 mg/kg/injection, schedule: Q01DX009 (ip), vehicle: Klucel (hydroxypropylcellulose) (HPC)): 97 % of control and 102 % of control
T/C (dose: 0.12 mg/kg/injection, schedule: Q01DX009 (ip), vehicle: saline): 93 % of control
T/C (dose: 0.25 mg/kg/injection, schedule: Q01DX009 (ip), vehicle: Klucel (hydroxypropylcellulose) (HPC)): 100 % of control and 108 % of control
T/C (dose: 0.25 mg/kg/injection, schedule: Q01DX009 (ip), vehicle: saline): 103 % of control
T/C [1]: 94 % of control and 97 % of control and 100 % of control
T/C [2]: 102 % of control
T/C [3]: 90 % of control and 94 % of control and 100 % of control
T/C [4]: 98 % of control
T/C [5]: 100 % of control

O=C1C=CN(C2OC(CO)C(O)C2O)C(=O)C1 (stereo not given)
T/C [6]: 90 % of control
T/C [7]: 97 % of control
T/C [8]: 97 % of control
T/C [9]: 100 % of control
T/C [10]: 111 % of control
T/C [11]: 107 % of control

CNc1nc(N(C)C)nc(N(C)C)n1
T/C [6]: 102 % of control and 106 % of control

CC1CCC(NC(=O)N(CCCl)N=O)CC1 (stereo not given)
T/C [1]: 105 % of control
T/C [3]: 102 % of control
T/C (dose: 2.0 mg/kg/injection, schedule: Q01DX009 (ip), vehicle: Klucel (hydroxypropylcellulose) (HPC)): 111 % of control
T/C (dose: 4.0 mg/kg/injection, schedule: Q01DX009 (ip), vehicle: Klucel (hydroxypropylcellulose) (HPC)): 117 % of control
T/C (dose: 6.48 mg/kg/injection, schedule: Q01DX001 (ip), vehicle: other): 106 % of control
T/C (dose: 10.8 mg/kg/injection, schedule: Q01DX001 (ip), vehicle: other): 117 % of control
T/C (dose: 50.0 mg/kg/injection, schedule: Q01DX001 (ip), vehicle: other): 118 % of control

CC[C@H]1CN2CCc3cc(OC)c(OC)cc3[C@@H]2C[C@@H]1C[C@H]1NCCc2cc(OC)c(OC)cc21
T/C (dose: 2.0 mg/kg/injection, schedule: Q01DX005 (ip), vehicle: Klucel (hydroxypropylcellulose) (HPC)): 100 % of control and 104 % of control
T/C (dose: 4.0 mg/kg/injection, schedule: Q01DX005 (ip), vehicle: Klucel (hydroxypropylcellulose) (HPC)): 90 % of control and 110 % of control
T/C (dose: 8.0 mg/kg/injection, schedule: Q01DX005 (ip), vehicle: Klucel (hydroxypropylcellulose) (HPC)): 86 % of control and 112 % of control

O=NN(CCCl)C(=O)NC1[C@H](O)CCC[C@@H]1O (stereo not given in full)
T/C (dose: 4.32 mg/kg/injection, schedule: Q01DX001 (ip), vehicle: saline): 104 % of control
T/C (dose: 12.0 mg/kg/injection, schedule: Q01DX001 (ip), vehicle: saline): 152 % of control

CN(C)N=Nc1ccc2c(c1)N(C)c1ccc(F)cc1S2
T/C (dose: 6.25 mg/kg/injection, schedule: Q01DX009 (ip), vehicle: other): 90 % of control
T/C (dose: 12.5 mg/kg/injection, schedule: Q01DX009 (ip), vehicle: other): 105 % of control
T/C (dose: 25.0 mg/kg/injection, schedule: Q01DX009 (ip), vehicle: other): 112 % of control
T/C (dose: 50.0 mg/kg/injection, schedule: Q01DX009 (ip), vehicle: other): 105 % of control
T/C (dose: 100.0 mg/kg/injection, schedule: Q01DX009 (ip), vehicle: other): 112 % of control

CN=S(=O)(OCCCCCOS(=O)(=NC)c1ccccc1)c1ccccc1 (stereo not given)
T/C (dose: 6.25 mg/kg/injection, schedule: Q01DX009 (ip), vehicle: saline with Tween-80): 109 % of control
T/C (dose: 12.5 mg/kg/injection, schedule: Q01DX009 (ip), vehicle: saline with Tween-80): 91 % of control
T/C [12]: 100 % of control

O=C1C(NCCO)=C(N2CC2)C(=O)C(NCCO)=C1N1CC1
T/C (dose: 0.09 mg/kg/injection, schedule: Q01DX009 (ip), vehicle: saline): 97 % of control
T/C (dose: 0.19 mg/kg/injection, schedule: Q01DX009 (ip), vehicle: saline): 103 % of control
T/C (dose: 0.38 mg/kg/injection, schedule: Q01DX009 (ip), vehicle: saline): 109 % of control
T/C (dose: 0.75 mg/kg/injection, schedule: Q01DX009 (ip), vehicle: saline): 100 % of control

CN(N=O)C(N)=O
T/C (dose: 1.56 mg/kg/injection, schedule: Q01DX009 (ip), vehicle: saline): 118 % of control
T/C (dose: 6.25 mg/kg/injection, schedule: Q01DX009 (ip), vehicle: saline): 112 % of control
T/C [7]: 168 % of control

O=C(O)CC(NC(=O)CP(=O)(O)O)C(=O)O (stereo not given)
T/C (dose: 32.0 mg/kg/injection, schedule: Q04DX003 (ip), vehicle: saline): 101 % of control
T/C (dose: 64.0 mg/kg/injection, schedule: Q04DX003 (ip), vehicle: saline): 96 % of control
T/C (dose: 128.0 mg/kg/injection, schedule: Q04DX003 (ip), vehicle: saline): 90 % of control
T/C (dose: 256.0 mg/kg/injection, schedule: Q04DX003 (ip), vehicle: saline): 101 % of control
T/C (dose: 512.0 mg/kg/injection, schedule: Q04DX003 (ip), vehicle: saline): 104 % of control
T/C (dose: 1024.0 mg/kg/injection, schedule: Q04DX003 (ip), vehicle: saline): 110 % of control

O=NN(CCF)C(=O)NC1CCC(=O)NC1=O (stereo not given)
T/C [13]: 115 % of control
T/C [14]: 111 % of control
T/C [15]: 157 % of control

OC(CBr)C(O)C(O)C(O)CBr (stereo not given)
T/C [7]: 92 % of control
T/C [8]: 100 % of control and 108 % of control (2×)
T/C [9]: 116 % of control and 117 % of control and 100 % of control
T/C [10]: 117 % of control and 104 % of control
T/C [11]: 120 % of control

Cc1c2ccncc2c(C)c2c1[nH]c1ccccc12
T/C (dose: 10.0 mg/kg/injection, schedule: Q01DX009 (ip), vehicle: saline): 113 % of control

COC1=C(N2CC2)C(=O)C(OC)=C(N2CC2)C1=O
T/C [2]: 115 % of control
T/C [4]: 107 % of control
T/C [5]: 117 % of control
T/C (dose: 4.0 mg/kg/injection, schedule: Q01DX009 (ip), vehicle: saline): 86 % of control

CN(C)/N=N/c1nc[nH]c1C(N)=O
T/C [6]: 116 % of control and 113 % of control
T/C [12]: 105 % of control
T/C [7]: 116 % of control and 122 % of control
T/C (dose: 50.0 mg/kg/injection, schedule: Q01DX009 (ip), vehicle: saline with Tween-80): 111 % of control
T/C [8]: 109 % of control
T/C (dose: 100.0 mg/kg/injection, schedule: Q01DX009 (ip), vehicle: saline with Tween-80): 117 % of control
T/C [9]: 122 % of control
T/C (dose: 200.0 mg/kg/injection, schedule: Q01DX009 (ip), vehicle: saline with Tween-80): 112 % of control

Cc1ncc(CO)c(C)c1O
T/C (dose: 128.0 mg/kg/injection, schedule: Q01DX005 (ip), vehicle: Klucel (hydroxypropylcellulose) (HPC)): 100 % of control and 109 % of control
T/C (dose: 256.0 mg/kg/injection, schedule: Q01DX005 (ip), vehicle: Klucel (hydroxypropylcellulose) (HPC)): 98 % of control and 105 % of control

O=NN(CCF)C(=O)NC1CCCCC1
T/C (dose: 5.1 mg/kg/injection, schedule: Q01DX001 (ip), vehicle: other): 107 % of control
T/C (dose: 10.2 mg/kg/injection, schedule: Q01DX001 (ip), vehicle: other): 112 % of control
T/C (dose: 13.0 mg/kg/injection, schedule: Q01DX001 (ip), vehicle: Klucel (hydroxypropylcellulose) (HPC)): 104 % of control
T/C (dose: 17.8 mg/kg/injection, schedule: Q01DX001 (ip), vehicle: Klucel (hydroxypropylcellulose) (HPC)): 111 % of control
T/C (dose: 21.6 mg/kg/injection, schedule: Q01DX001 (ip), vehicle: Klucel (hydroxypropylcellulose) (HPC)): 174 % of control
T/C [13]: 115 % of control
T/C [14]: 180 % of control
T/C (dose: 43.2 mg/kg/injection, schedule: Q01DX001 (ip), vehicle: other): 180 % of control
T/C [15]: 168 % of control and 269 % of control
T/C (dose: 90.0 mg/kg/injection, schedule: Q01DX001 (ip), vehicle: Klucel (hydroxypropylcellulose) (HPC)): 263 % of control
T/C (dose: 162.8 mg/kg/injection, schedule: Q01DX001 (ip), vehicle: other): 235 % of control

N=C(N)SCc1c2ccccc2c(CSC(=N)N)c2ccccc12
T/C (dose: 2.5 mg/kg/injection, schedule: Q01DX005 (ip), vehicle: Klucel (hydroxypropylcellulose) (HPC)): 107 % of control and 111 % of control
T/C (dose: 5.0 mg/kg/injection, schedule: Q01DX005 (ip), vehicle: Klucel (hydroxypropylcellulose) (HPC)): 90 % of control and 92 % of control
T/C (dose: 10.0 mg/kg/injection, schedule: Q01DX005 (ip), vehicle: Klucel (hydroxypropylcellulose) (HPC)): 97 % of control and 103 % of control
T/C (dose: 20.0 mg/kg/injection, schedule: Q01DX005 (ip), vehicle: Klucel (hydroxypropylcellulose) (HPC)): 93 % of control and 96 % of control

O=C1c2c(O)ccc(O)c2C(=O)c2c(NCCNCCO)ccc(NCCNCCO)c21
T/C [2]: 90 % of control
T/C [4]: 96 % of control
T/C [5]: 102 % of control
